Where a name gives a salt, the structure may show the parent alone. Bounds are passed on as bounds.

Data on eight compounds can be found in US10647680B2, “Urea compound, preparation method therefor and medical use thereof” (Ancureall Pharmaceutical (Shanghai) Co., Ltd., priority 2016, dated 2020).

Series [1] can be described thus: Solubility test. In kind it is physicochemical. The conditions noted are these: in water at 25° C.±2° C. On the procedure: The fine powder of the test sample was weighed into an appropriate amount of water at 25° C.±2° C. and shaken vigorously for 30 seconds every 5 minutes so that it was fully dissolved within 30 minutes. If no visible solute particles were observed, it was considered completely dissolved. “Readily soluble” means that 1 g of the test sample could be dissolved in 1-10 ml of water; and “soluble” means that 1 g of the test sample could be dissolved in 10-30 ml of water; “slightly soluble” means that 1 g of the test sample could be dissolved in 30-100 ml of water; and “sparingly soluble” means that 1 g of the test sample could be dissolved in 100-1,000 ml of water; “nearly insoluble or insoluble” means that 1 g of the test sample could not be completely dissolved in 10,000 ml of water.

The test system of series [2] is MV4-11 (FLT3 ITD+/+ mutant type). Briefly: In vitro growth inhibition (GI50), MV4-11. In kind it is cell-based, human. The conditions noted are these: Homo sapiens, MV4-11; Cell lines of leukemia; read-out: GI 50 MV4-11 FLT3 (ITD +/+).
Series [3] has as its system MOLM-13 (FLT3 ITD+/− mutant type). Briefly: In vitro growth inhibition (GI50), MOLM-13. Format: cell-based, human. The conditions noted are these: Homo sapiens, MOLM-13; Cell lines of leukemia; read-out: GI 50 MOLM-13 FLT3 (ITD+/−).
Series [4] deals with RS4; 11 (FLT3 wild type). Briefly: In vitro growth inhibition (GI50), RS4; 11. In kind it is cell-based, human. As to conditions: Homo sapiens, RS4-11; Cell lines of leukemia; read-out: GI 50 RS4: 11 FLT3 (WT).
The subject of series [5] is K562 (FLT3 negative expression, positive expression of BCR-ABL fusion protein). Put plainly: In vitro growth inhibition (GI50), K562. In kind it is cell-based. As to conditions: Homo sapiens, Cell lines of leukemia, read-out: GI 50 K562 BCR-ABL.
The test system of series [6] is RAMOS (positive expression of Brutons tyrosine protein kinase). Put plainly: In vitro growth inhibition (GI50), RAMOS. In kind it is cell-based. The conditions noted are these: Homo sapiens, Cell lines of leukemia, read-out: GI 50 Ramos BTK.
Series [7] deals with U937 (FLT3 wild-type). Briefly: In vitro growth inhibition (GI50), U937. In kind it is cell-based. The conditions noted are these: Homo sapiens, U-937; Cell lines of leukemia; read-out: GI 50 U937 FLT 3(WT).
For series [8], the system named is Kasumi-1 (c-Kit N822K mutant type). Briefly: In vitro growth inhibition (GI50), Kasumi-1. In kind it is cell-based. As to conditions: Homo sapiens, Cell lines of leukemia, read-out: GI 50 Kasumi-1 Kit (N822K). The gist of the method:
(§1)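 After 3–5 days of treatment (top concentration 5,000 nM, serially diluted 2- or 10-fold to 0.01 nM, solvent ≤1%), viability was read by CCK8 at OD450. Growth rate was normalised to the time-zero and solvent-control wells, and GI50 was derived from the curve. Cultures in RPMI1640 + 10% FBS.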

The subject of series [9] is KG-1 (expressing FGFR1OP2-FGFR1 fusion protein). Put plainly: In vitro growth inhibition (GI50), KG-1. The conditions noted are these: Homo sapiens; Cell lines of leukemia; read-out: GI 50 KG-1 FGFR1OP 2-FGFR1. In kind it is cell-based.
Series [10] relates to HL-60 (FLT3 wild type). Briefly: In vitro growth inhibition (GI50), HL-60. In kind it is cell-based. As to conditions: Homo sapiens, Cell lines of leukemia, read-out: GI 50 HL60 FLT3 (WT). Put shortly: as §1
Series [11] relates to OCI-AML3 (NPMc+ mutant type). Briefly: In vitro growth inhibition (GI50), OCI-AML3. Format: cell-based. The conditions noted are these: Homo sapiens, OCI-AML-3; Cell lines of leukemia; read-out: GI 50 OCI- AML3 NPMc+.

On to `CC(C)(C)c1cc(NC(=O)Nc2ccc(-n3cnc4cc(OCCN5CCOCC5)ccc43)cc2)no1` [Compound 16 Mesylate, 1-(5-tert-butyl-isoxazol-3-yl)-3-{4-[5-(2-morpholin-4-yl-ethoxyl)-benzimidazol-1-yl]-phenyl}-urea], for which, in series [1] (listed as 16 Mesylate), the Solubility entry is on record as “readily soluble (“Readily soluble” means that 1 g of the test sample could be dissolved in 1-10 ml of water)”.

As for `COc1ccc2c(c1)ncn2-c1ccc(NC(=O)Nc2cc(C(C)(C)C)n[nH]2)cc1` [Compound 71 Hydrochloride, 1-(5-tert-butyl-2H-pyrazol-3-yl)-3-[4-(5-methoxyl-benzimidazol-1-yl)-phenyl]-urea], the Solubility entry in [1] (listed as 71 Hydrochloride) is listed as “slightly soluble (“slightly soluble” means that 1 g of the test sample could be dissolved in 30-100 ml of water)”.

In the case of `COCCOc1ccc2c(c1)ncn2-c1ccc(NC(=O)Nc2cc(C(C)(C)C)n[nH]2)cc1` [Compound 77 Benzene sulfonate, 1-(5-tert-butyl-2H-pyrazol-3-yl)-3-{4-[5-(2-methoxyl-ethoxyl)-benzimidazol-1-yl]-phenyl}-urea], in series [1] (listed as 77 Benzene sulfonate), the Solubility entry is reported as “slightly soluble (“slightly soluble” means that 1 g of the test sample could be dissolved in 30-100 ml of water)”.

For the compound `COCCOc1ccc2c(c1)ncn2-c1ccc(NC(=O)Nc2cc(C(C)(C)C)n[nH]2)cc1` [Compound 77 Hydrochloride, 1-(5-tert-butyl-2H-pyrazol-3-yl)-3-{4-[5-(2-methoxyl-ethoxyl)-benzimidazol-1-yl]-phenyl}-urea], the Solubility entry in series [1] (listed as 77 Hydrochloride) is on record as “slightly soluble (“slightly soluble” means that 1 g of the test sample could be dissolved in 30-100 ml of water)”.

On to `COCCOc1ccc2c(c1)ncn2-c1ccc(NC(=O)Nc2cc(C(C)(C)C)n[nH]2)cc1` [Compound 77 Trifluoroacetates, 1-(5-tert-butyl-2H-pyrazol-3-yl)-3-{4-[5-(2-methoxyl-ethoxyl)-benzimidazol-1-yl]-phenyl}-urea], for which the Solubility result in [1] (listed as 77 Trifluoroacetates) is “slightly soluble (“slightly soluble” means that 1 g of the test sample could be dissolved in 30-100 ml of water)”.

In the case of `Cc1noc(NC(=O)Nc2ccc(-n3cnc4ccccc43)cc2)c1C` [Compound 131, 1-(4-benzimidazol-1-yl-phenyl)-3-(3,4-dimethyl-isoxazol-5-yl)-urea], the GI50 in series [2] is 100 to 1000 nM; in series [3], 100 to 1000 nM; in series [4] it was above 1000 nM; in series [5], above 1000 nM; in series [6], above 1000 nM; in series [7], above 1000 nM. Besides, the GI50 in [8], in series [9], in series [10] and in series [11] was above 1000 nM in each case.

For `CC(C)c1cc(NC(=O)Nc2ccc(-n3cnc4ccccc43)cc2)on1` [Compound 132, 1-(4-benzimidazol-1-yl-phenyl)-3-(3-isopropyl-isoxazol-5-yl)-urea], the GI50 in series [2] was 10 to 100 nM; in [3], 10 to 100 nM; in series [4], above 1000 nM; in series [5] it was above 1000 nM; in series [6] it was above 1000 nM; in series [7], above 1000 nM. For the same compound, the GI50 is above 1000 nM in series [8], above 1000 nM in [9], above 1000 nM in series [10] and 100 to 1000 nM in series [11].

Consider `CC(C)(C)c1cc(NC(=O)Nc2ccc(-n3cnc4ccccc43)cc2)on1` [Compound 133, 1-(4-benzimidazol-1-yl-phenyl)-3-(3-tert-butyl-isoxazol-5-yl)-urea], for which the GI50 is 1 to 10 nM in series [2]; 1 to 10 nM in series [3]; above 1000 nM in series [4]; above 1000 nM in [5]; above 1000 nM in series [6]; above 1000 nM in series [7]. In addition, the GI50 in series [8], in series [9], in series [10] and in series [11] was above 1000 nM throughout.
